# According to ChEMBL document CHEMBL2203174, “SAR Development of Lysine-Based Irreversible Inhibitors of Transglutaminase 2 for Huntington's Disease” (ACS Med Chem Lett, 2012):
# Peptide text beside a SMILES is read from it. * marks the point of attachment. Cbz = O=C(OCc1ccccc1)*; Acryloyl = C=CC(=O)*; OtBu = CC(C)(C)O*
# Assays:
# [1] = biological target: T1, Protein-glutamine gamma-glutamyltransferase (Homo sapiens, UniProt P21980); assay: Irreversible inhibition of transglutaminase 2
# T1 sequence (P21980 whole entry): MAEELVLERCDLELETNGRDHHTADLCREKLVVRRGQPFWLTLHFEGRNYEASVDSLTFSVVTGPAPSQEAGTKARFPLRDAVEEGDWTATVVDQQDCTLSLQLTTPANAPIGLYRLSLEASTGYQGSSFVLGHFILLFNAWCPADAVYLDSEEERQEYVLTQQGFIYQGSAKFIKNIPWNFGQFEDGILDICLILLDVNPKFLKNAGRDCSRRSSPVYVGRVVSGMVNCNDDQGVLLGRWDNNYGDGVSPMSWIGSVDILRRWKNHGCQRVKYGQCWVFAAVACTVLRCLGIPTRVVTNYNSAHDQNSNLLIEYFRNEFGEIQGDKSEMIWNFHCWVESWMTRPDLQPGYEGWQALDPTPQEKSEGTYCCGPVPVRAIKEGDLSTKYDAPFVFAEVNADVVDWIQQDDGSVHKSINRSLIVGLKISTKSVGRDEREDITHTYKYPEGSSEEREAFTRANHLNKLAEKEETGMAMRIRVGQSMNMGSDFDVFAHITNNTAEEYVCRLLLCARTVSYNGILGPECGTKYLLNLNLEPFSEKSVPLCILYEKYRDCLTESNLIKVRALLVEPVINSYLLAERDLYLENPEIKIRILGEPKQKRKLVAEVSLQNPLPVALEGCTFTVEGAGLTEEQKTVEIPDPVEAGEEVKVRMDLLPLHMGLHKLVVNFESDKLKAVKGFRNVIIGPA
# [2] = biological target: T2, Protein-glutamine gamma-glutamyltransferase E (Homo sapiens, UniProt Q08188); assay: Inhibition of transglutaminase 3
# T2 sequence (Q08188 whole entry): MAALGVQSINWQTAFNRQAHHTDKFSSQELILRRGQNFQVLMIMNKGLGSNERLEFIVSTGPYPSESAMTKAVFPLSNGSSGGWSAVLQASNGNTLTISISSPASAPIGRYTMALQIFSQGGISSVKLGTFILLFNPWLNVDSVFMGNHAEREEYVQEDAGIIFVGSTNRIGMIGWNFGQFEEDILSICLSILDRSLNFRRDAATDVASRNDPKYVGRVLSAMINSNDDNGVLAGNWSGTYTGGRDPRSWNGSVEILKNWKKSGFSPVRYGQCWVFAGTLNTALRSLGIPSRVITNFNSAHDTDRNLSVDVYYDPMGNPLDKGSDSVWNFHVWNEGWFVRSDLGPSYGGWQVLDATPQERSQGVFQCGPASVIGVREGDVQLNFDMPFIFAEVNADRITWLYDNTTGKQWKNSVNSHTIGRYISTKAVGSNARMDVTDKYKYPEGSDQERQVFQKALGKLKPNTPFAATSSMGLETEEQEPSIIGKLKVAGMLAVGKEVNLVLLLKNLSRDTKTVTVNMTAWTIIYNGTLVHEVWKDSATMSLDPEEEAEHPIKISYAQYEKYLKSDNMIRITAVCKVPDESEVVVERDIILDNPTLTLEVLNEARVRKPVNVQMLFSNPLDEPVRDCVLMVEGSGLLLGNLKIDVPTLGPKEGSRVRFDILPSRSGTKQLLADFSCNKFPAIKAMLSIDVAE
# [3] = biological target: T3, Protein-glutamine gamma-glutamyltransferase 6 (Homo sapiens, UniProt O95932); assay: Inhibition of transglutaminase 6
# T3 sequence (O95932 whole entry): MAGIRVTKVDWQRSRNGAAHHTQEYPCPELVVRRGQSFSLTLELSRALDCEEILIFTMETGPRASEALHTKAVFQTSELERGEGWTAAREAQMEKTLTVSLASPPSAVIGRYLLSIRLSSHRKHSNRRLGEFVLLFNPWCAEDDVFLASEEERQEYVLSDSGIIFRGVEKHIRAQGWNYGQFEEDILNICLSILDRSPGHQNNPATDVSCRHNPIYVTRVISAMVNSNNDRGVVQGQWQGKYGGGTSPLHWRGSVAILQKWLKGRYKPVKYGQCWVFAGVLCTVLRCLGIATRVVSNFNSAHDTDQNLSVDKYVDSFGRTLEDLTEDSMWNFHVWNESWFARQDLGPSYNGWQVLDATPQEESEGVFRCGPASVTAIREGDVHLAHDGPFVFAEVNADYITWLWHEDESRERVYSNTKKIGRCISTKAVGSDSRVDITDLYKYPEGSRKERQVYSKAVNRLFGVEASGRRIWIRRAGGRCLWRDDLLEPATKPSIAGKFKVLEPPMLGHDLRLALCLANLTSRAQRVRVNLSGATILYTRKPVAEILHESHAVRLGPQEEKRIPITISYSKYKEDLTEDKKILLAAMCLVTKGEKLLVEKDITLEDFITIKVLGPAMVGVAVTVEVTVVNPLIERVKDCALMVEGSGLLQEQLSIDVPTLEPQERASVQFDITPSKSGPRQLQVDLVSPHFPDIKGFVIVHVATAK
# [4] = biological target: T4, Coagulation factor XIII A chain (Homo sapiens, UniProt P00488); assay: Inhibition of coagulation factor 13a
# T4 sequence (P00488 whole entry): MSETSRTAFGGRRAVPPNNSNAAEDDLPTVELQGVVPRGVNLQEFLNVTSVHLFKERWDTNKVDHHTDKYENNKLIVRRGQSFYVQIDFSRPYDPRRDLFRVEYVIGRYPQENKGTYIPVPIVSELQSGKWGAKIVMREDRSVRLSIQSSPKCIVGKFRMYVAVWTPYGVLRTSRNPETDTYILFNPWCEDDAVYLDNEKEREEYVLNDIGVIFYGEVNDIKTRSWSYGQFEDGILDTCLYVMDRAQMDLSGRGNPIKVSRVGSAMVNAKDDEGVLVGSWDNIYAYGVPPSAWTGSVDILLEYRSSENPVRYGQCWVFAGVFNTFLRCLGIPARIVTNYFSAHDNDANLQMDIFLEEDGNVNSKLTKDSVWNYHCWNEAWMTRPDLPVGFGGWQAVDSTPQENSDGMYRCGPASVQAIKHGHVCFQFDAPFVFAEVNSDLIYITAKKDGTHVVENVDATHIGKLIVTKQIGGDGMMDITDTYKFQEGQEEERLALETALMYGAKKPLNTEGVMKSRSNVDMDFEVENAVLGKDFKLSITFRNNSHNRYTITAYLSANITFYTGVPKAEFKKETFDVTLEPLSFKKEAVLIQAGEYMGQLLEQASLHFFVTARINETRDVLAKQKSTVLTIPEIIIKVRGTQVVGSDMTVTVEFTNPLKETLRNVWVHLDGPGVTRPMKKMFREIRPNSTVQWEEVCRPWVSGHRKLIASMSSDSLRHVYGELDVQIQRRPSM
IC50 [1] [µM],IC50 [2] [µM],IC50 [3] [µM],IC50 [4] [µM],Structure (SMILES)
0.014,> 80,> 80,35,C=CC(=O)NCCCC[C@H](NC(=O)Cc1ccccc1)C(=O)N1CCN(c2cccc(C)n2)CC1
3.1,> 80,> 80,> 80,C=CC(=O)NCCCC[C@H](NC(=O)OCc1ccccc1)C(=O)NCC(=O)OC(C)(C)C (Cbz-Lys(Acryloyl)-Gly-OtBu)
0.062,> 80,69,67,C=CC(=O)NCCCC[C@H](NC(=O)OCc1ccccc1)C(=O)N1CCN(c2ccccc2Cl)CC1
